The molecules below were run against T1, human LPA1 receptor (Homo sapiens, UniProt Q92633) (assay: Beta-arrestin recruitment assay to determine IC50 values for human LPAR1). Details: Tango EDG2-bla U2OS cells, antagonist assay, LPA 18:1 500 nM final.
T1 construct: TEV protease site; Gal4-VP16 transcription factor; host or cells: Tango EDG2-bla U2OS cells
Assay type: cell-based
From the text: Beta-Arrestin Recruitment Assay to Determine IC50 Values for Human LPAR1
The Tango™ EDG2-bla U2OS cells are obtained from Invitrogen. These cells contain the human LPA1 receptor cDNA linked to a TEV protease site and a Gal4-VP16 transcription factor integrated into the Tango™ GPCR-bla U2OS parental cell line. This parental cell line stably expresses a beta-arrestin/TEV protease fusion protein and the beta-lactamase (bla) reporter gene under the control of a UAS response element. Upon LPA (agonist) binding, LPA1 receptor gets activated, leading to arrestin-protease recruitment and proteolytic release of the transcription factor: The transcription factor then regulates transcription of a beta-lactamase reporter construct, which is measured upon addition of the live-cell substrate.
10′000 Tango™ EDG2-bla U2OS cells are seeded in a 384-well black with clear bottom plate in 30 μl Freestyle 293 Expression Medium (Invitrogen) and incubated for 20 h at 37° C., 5% CO2. For antagonist assays, 5 μl of test compound (dilution series in DMSO/Freestyle 293 Expression medium/0.1% fatty acid free BSA (Sigma)) or buffer control are added per well and incubated for 30 min at 37° C., 5% CO2. 5 μl of LPA 18:1 (500 nM final) (solution in Freestyle 293 Expression medium/0.1% fatty acid free BSA (Sigma)) are added per well and the plate incubated for 16 h at 37° C., 5% CO2. Cells are then loaded with LiveBLAzer-FRET™ B/G Substrate (Invitrogen) for 2 h in the dark and the fluorescence emission at 460 nm and 530 nm is measured using the SynergyMx reader (BioTek). Following the background subtraction from both channels, the 460/530 nm emission ratio for each well is calculated, then plotted and fitted to a 4-parameter logistic function to obtain IC50 values. IC50 is the concentration of antagonist inhibiting 50% of the maximal response.

T1 sequence (Q92633 whole entry, the tested form may be a part): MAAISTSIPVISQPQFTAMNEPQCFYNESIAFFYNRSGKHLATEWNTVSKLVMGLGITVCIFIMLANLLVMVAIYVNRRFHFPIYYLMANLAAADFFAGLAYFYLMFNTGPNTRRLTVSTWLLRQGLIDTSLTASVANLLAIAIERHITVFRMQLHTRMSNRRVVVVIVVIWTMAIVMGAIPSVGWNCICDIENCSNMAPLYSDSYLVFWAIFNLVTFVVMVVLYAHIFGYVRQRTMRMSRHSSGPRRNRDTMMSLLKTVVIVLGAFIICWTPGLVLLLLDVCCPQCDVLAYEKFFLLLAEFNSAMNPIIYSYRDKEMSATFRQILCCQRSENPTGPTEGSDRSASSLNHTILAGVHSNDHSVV

Going from “4-(4-((6-chloro-4-methoxypyridin-3-yl)carbamoyl)-4-(2-isopropylphenyl)piperidin-1-yl)-2,2-dimethyl-4-oxobutanoic acid [Example 19-20]” to `COc1cc(F)ncc1NC(=O)C1(c2ccccc2C(C)C)CNC1` [Example 1, N-(6-fluoro-4-methoxypyridin-3-yl)-3-(2-isopropylphenyl)azetidine-3-carboxamide], the IC50 rises from 22 nM to 48 nM (2.2-fold).

Going from `COc1ccncc1NC(=O)C1(c2ccccc2C(C)C)CNC1` [Example 2, 3-(2-isopropylphenyl)-N-(4-methoxypyridin-3-yl)azetidine-3-carboxamide] to `COc1cc(Cl)ncc1NC(=O)C1(c2ccccc2C(C)C)CNC1` [Example 3, N-(6-chloro-4-methoxypyridin-3-yl)-3-(2-isopropylphenyl)azetidine-3-carboxamide], the IC50 falls from 74 nM to 4 nM (18-fold).

Going from `COc1cc(Br)ncc1NC(=O)C1(c2ccccc2C(C)C)CNC1` [Example 4, N-(6-bromo-4-methoxypyridin-3-yl)-3-(2-isopropylphenyl)azetidine-3-carboxamide] to `CCOc1cc(Cl)ncc1NC(=O)C1(c2ccccc2C(C)C)CNC1` [Example 5, N-(6-chloro-4-ethoxypyridin-3-yl)-3-(2-isopropylphenyl)azetidine-3-carboxamide], the IC50 falls from 6 nM to 3 nM (2-fold). The second is the more potent here.

First: CC(C)Oc1cc(Cl)ncc1NC(=O)C1(c2ccccc2C(C)C)CNC1 [Example 6, N-(6-chloro-4-isopropoxypyridin-3-yl)-3-(2-isopropylphenyl)azetidine-3-carboxamide]
Second: CC(C)c1ccccc1C1(C(=O)Nc2cnc(Cl)cc2OC2CC2)CNC1 [Example 7, N-(6-chloro-4-cyclopropoxypyridin-3-yl)-3-(2-isopropylphenyl)azetidine-3-carboxamide]
The IC50 of the first is 14-fold lower: 3 nM for the first, 41 nM for the second. The first is the more potent here.

Compared with `COCCOc1cc(Cl)ncc1NC(=O)C1(c2ccccc2C(C)C)CNC1` [Example 8, N-(6-chloro-4-(2-methoxyethoxy)pyridin-3-yl)-3-(2-isopropylphenyl)azetidine-3-carboxamide], `COC[C@H](C)Oc1cc(Cl)ncc1NC(=O)C1(c2ccccc2C(C)C)CNC1` [Example 9, (S)-N-(6-chloro-4-((1-methoxypropan-2-yl)oxy)pyridin-3-yl)-3-(2-isopropylphenyl)azetidine-3-carboxamide] is 63-fold lower in IC50: 252 nM for the first, 4 nM for the second. The second is the more potent here.

First: COc1cc(Cl)ncc1NC(=O)C1(c2ccccc2C(C)C)CCNCC1 [Example 10, N-(6-chloro-4-methoxypyridin-3-yl)-4-(2-isopropylphenyl)piperidine-4-carboxamide]
Second: COc1cc(C)ncc1NC(=O)C1(c2ccccc2C(C)C)CNC1 [Example 11, 3-(2-isopropylphenyl)-N-(4-methoxy-6-methylpyridin-3-yl)azetidine-3-carboxamide]
The IC50 of the first is 3-fold lower: 12 nM for the first, 36 nM for the second.

Going from `COc1cc(C(F)(F)F)ncc1NC(=O)C1(c2ccccc2C(C)C)CNC1` [Example 12, 3-(2-isopropylphenyl)-N-(4-methoxy-6-(trifluoromethyl)pyridin-3-yl)azetidine-3-carboxamide] to `COc1cc(Cl)ncc1NC(=O)C1(c2c(F)cccc2C(C)C)CNC1` [Example 13, N-(6-chloro-4-methoxypyridin-3-yl)-3-(2-fluoro-6-isopropylphenyl)azetidine-3-carboxamide], the IC50 falls from 1200 nM to 3 nM (400-fold). The second is the more potent here.

Compared with `COc1cc(Cl)ncc1NC(=O)C1(c2cc(F)ccc2C(C)C)CNC1` [Example 14, N-(6-chloro-4-methoxypyridin-3-yl)-3-(5-fluoro-2-isopropylphenyl)azetidine-3-carboxamide], `COc1cc(Cl)ncc1NC(=O)C1(c2ncccc2C(C)C)CNC1` [Example 15, N-(6-chloro-4-methoxypyridin-3-yl)-3-(3-isopropylpyridin-2-yl)azetidine-3-carboxamide] is 16-fold higher in IC50: 12 nM for the first, 196 nM for the second.

Compared with `COc1cc(Cl)ncc1NC(=O)C1(c2nc(F)ccc2C(C)C)CNC1` [Example 16, N-(6-chloro-4-methoxypyridin-3-yl)-3-(6-fluoro-3-isopropylpyridin-2-yl)azetidine-3-carboxamide], `COc1cc(Cl)ncc1NC(=O)C1(c2ccccc2C2CCCC2)CNC1` [Example 17, N-(6-chloro-4-methoxypyridin-3-yl)-3-(2-cyclopentylphenyl)azetidine-3-carboxamide] is 140-fold lower in IC50: 419 nM for the first, 3 nM for the second.

Going from `COc1cc(Cl)ncc1NC(=O)C1(c2ccccc2C(C)C)CN(C(C)C)C1` [Example 18-1, N-(6-chloro-4-methoxypyridin-3-yl)-1-isopropyl-3-(2-isopropylphenyl)azetidine-3-carboxamide] to `COc1cc(Cl)ncc1NC(=O)C1(c2ccccc2C(C)C)CN(CC(C)C)C1` [Example 18-2, N-(6-chloro-4-methoxypyridin-3-yl)-1-isobutyl-3-(2-isopropylphenyl)azetidine-3-carboxamide], the IC50 rises from 9 nM to 35 nM (3.9-fold). The first is the more potent here.

Going from `COc1cc(Cl)ncc1NC(=O)C1(c2ccccc2C(C)C)CN(CCO)C1` [Example 18-3, N-(6-chloro-4-methoxypyridin-3-yl)-1-(2-hydroxyethyl)-3-(2-isopropylphenyl)azetidine-3-carboxamide] to `COc1cc(Cl)ncc1NC(=O)C1(c2ccccc2C(C)C)CN(CCc2nnn[nH]2)C1` [Example 18-4, 1-(2-(1H-tetrazol-5-yl)ethyl)-N-(6-chloro-4-methoxypyridin-3-yl)-3-(2-isopropylphenyl)azetidine-3-carboxamide], the IC50 rises from 37 nM to 143 nM (3.9-fold).

First: COc1cc(Cl)ncc1NC(=O)C1(c2ccccc2C(C)C)CN(CCCc2nnn[nH]2)C1 [Example 18-5, 1-(3-(1H-tetrazol-5-yl)propyl)-N-(6-chloro-4-methoxypyridin-3-yl)-3-(2-isopropylphenyl)azetidine-3-carboxamide]
Second: COc1cc(Cl)ncc1NC(=O)C1(c2ccccc2C(C)C)CN(CC(=O)O)C1 [Example 18-6, 2-(3-((6-chloro-4-methoxypyridin-3-yl)carbamoyl)-3-(2-isopropylphenyl)azetidin-1-yl)acetic acid]
The IC50 of the first is 2.7-fold higher: 347 nM for the first, 128 nM for the second. The second is the more potent here.

Compared with `COc1cc(Cl)ncc1NC(=O)C1(c2ccccc2C(C)C)CN(CCN)C1` [Example 18-7, 1-(2-aminoethyl)-N-(6-chloro-4-methoxypyridin-3-yl)-3-(2-isopropylphenyl)azetidine-3-carboxamide], `COc1cc(Cl)ncc1NC(=O)C1(c2ccccc2C(C)C)CN(C2CCC2)C1` [Example 18-8, N-(6-chloro-4-methoxypyridin-3-yl)-1-cyclobutyl-3-(2-isopropylphenyl)azetidine-3-carboxamide] is 15-fold lower in IC50: 44 nM for the first, 3 nM for the second.

First: COc1cc(Cl)ncc1NC(=O)C1(c2ccccc2C(C)C)CN(C2COC2)C1 [Example 18-9, N-(6-chloro-4-methoxypyridin-3-yl)-3-(2-isopropylphenyl)-1-(oxetan-3-yl)azetidine-3-carboxamide]
Second: COc1cc(Cl)ncc1NC(=O)C1(c2ccccc2C(C)C)CN(CC2(F)CC2)C1 [Example 18-10, N-(6-chloro-4-methoxypyridin-3-yl)-1-((1-fluorocyclopropyl)methyl)-3-(2-isopropylphenyl)azetidine-3-carboxamide]
The IC50 of the first is 3.5-fold lower: 22 nM for the first, 76 nM for the second.

First: COc1cc(Cl)ncc1NC(=O)C1(c2ccccc2C(C)C)CN(C[C@@H]2COC(C)(C)O2)C1 [Example 18-11, (R)-N-(6-chloro-4-methoxypyridin-3-yl)-1-((2,2-dimethyl-1,3-dioxolan-4-yl)methyl)-3-(2-isopropylphenyl)azetidine-3-carboxamide]
Second: COc1cc(Cl)ncc1NC(=O)C1(c2ccccc2C(C)C)CN(C[C@@H](O)CO)C1 [Example 18-12, (R)-N-(6-chloro-4-methoxypyridin-3-yl)-1-(2,3-dihydroxypropyl)-3-(2-isopropylphenyl)azetidine-3-carboxamide]
The IC50 of the first is 4.9-fold higher: 136 nM for the first, 28 nM for the second. The second is the more potent here.

Compared with `COc1cc(Cl)ncc1NC(=O)C1(c2ccccc2C(C)C)CN(Cc2cc[nH]n2)C1` [Example 18-13, 1-((1H-pyrazol-3-yl)methyl)-N-(6-chloro-4-methoxypyridin-3-yl)-3-(2-isopropylphenyl)azetidine-3-carboxamide], `COc1cc(Cl)ncc1NC(=O)C1(c2ccccc2C(C)C)CN(Cc2cn[nH]c2)C1` [Example 18-14, 1-((1H-pyrazol-4-yl)methyl)-N-(6-chloro-4-methoxypyridin-3-yl)-3-(2-isopropylphenyl)azetidine-3-carboxamide] is 1.7-fold lower in IC50: 129 nM for the first, 74 nM for the second. The second is the more potent here.

Going from `COc1cc(Cl)ncc1NC(=O)C1(c2ccccc2C(C)C)CN(Cc2c[nH]nn2)C1` [Example 18-15, 1-((1H-1,2,3-triazol-4-yl)methyl)-N-(6-chloro-4-methoxypyridin-3-yl)-3-(2-isopropylphenyl)azetidine-3-carboxamide] to `COC(=O)C(C)(C)CCN1CC(C(=O)Nc2cnc(Cl)cc2OC)(c2ccccc2C(C)C)C1` [Example 18-16, methyl 4-(3-((6-chloro-4-methoxypyridin-3-yl)carbamoyl)-3-(2-isopropylphenyl)azetidin-1-yl)-2,2-dimethylbutanoate], the IC50 rises from 61 nM to 111 nM (1.8-fold). The first is the more potent here.

Source: patent US12479820B2, “Pyridin-3-yl derivatives” (Idorsia Pharmaceuticals Ltd, priority 2019, dated 2025)
